Reference: paper PMC7970697, “Inhibition and Induction by Poziotinib of Different Rat Cytochrome P450 Enzymes In Vivo and in an In Vitro Cocktail Method” (Frontiers in Pharmacology, 2021)
Like-named read-outs stand apart in the source and are kept apart here.

How the values were obtained:
cyp1a2 = target: T1, cyp1a2 (Rattus norvegicus, UniProt P04799); assay: Cocktail method IC50 in rat liver microsomes, phenacetin probe; format: in vitro ADME
T1 construct: To this cocktail, 1 mg/ml of RLMs; from tissue; host or cells: rat liver microsomes, prepared in-house
T1 sequence (P04799 1-513): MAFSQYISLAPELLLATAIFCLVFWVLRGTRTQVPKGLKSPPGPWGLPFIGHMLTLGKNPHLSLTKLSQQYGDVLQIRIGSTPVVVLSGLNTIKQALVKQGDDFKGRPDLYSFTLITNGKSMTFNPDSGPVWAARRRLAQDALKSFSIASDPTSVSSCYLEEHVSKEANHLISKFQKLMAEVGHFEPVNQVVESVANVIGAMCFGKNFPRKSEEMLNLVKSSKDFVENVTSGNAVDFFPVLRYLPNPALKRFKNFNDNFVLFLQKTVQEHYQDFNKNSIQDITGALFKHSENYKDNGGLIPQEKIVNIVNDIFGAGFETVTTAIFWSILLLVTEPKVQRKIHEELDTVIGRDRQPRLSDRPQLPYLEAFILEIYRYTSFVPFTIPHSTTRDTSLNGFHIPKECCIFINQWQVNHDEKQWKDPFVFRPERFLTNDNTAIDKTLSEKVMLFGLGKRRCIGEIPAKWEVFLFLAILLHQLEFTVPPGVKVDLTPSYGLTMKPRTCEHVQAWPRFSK
Experimental: (§1) The cocktail method was employed to analyze the effects of poziotinib on cyp1a2, cyp2b1, cyp2c11, cyp2d1, cyp2e1, and cyp3a1/2. […] Then half-maximal inhibitory concentration (IC50) of poziotinib was determined with all of the CYPs. […]. To this cocktail, 1 mg/ml of RLMs, 100 mM potassium phosphate buffer (pH 7.4), poziotinib (1, 2.5, 5, 10, 25, 50, or 100 μM) were added to obtain a final volume of 200 μL. After pre-incubation of this mixture for 5 min in a shaking water bath at 37°C, 1 mM NADPH was added to start the reaction. The reactions were allowed to proceed for 30 min, after which 200 μL of acetonitrile and 20 μL of IS were added to terminate the reactions. The mixtures were vortexed for 30 s and centrifuged again at 13,000 rpm for 5 min.

cyp3a1/2 = assay: Effect of poziotinib on cyp3a1/2 activity in rats (midazolam pharmacokinetics); format: in vivo, Sprague-Dawley rats; settings: poziotinib 5 mg/kg oral 7 days, midazolam probe
Experimental: Twelve male Sprague-Dawley rats (230 ± 20 g) were randomly divided into treated and control groups, with 6 in each group. […] The supernatant was mixed with 200 μL of acetonitrile and 20 μL of 0.5 μg/ml diazepam (IS), vortexed for 30 s, centrifuged at 13,000 rpm for 5 min, and the supernatant was injected into the UPLC-MS/MS system for analysis.
Pharmacokinetic parameters were calculated using DAS software (Version 3.2.8). SPSS software (version 16.0; SPSS Inc., Chicago, IL, United States) was used to analyze the significance of differences between the main pharmacokinetic parameters. p < 0.05 was considered statistically significant. GraphPad (version 8.0; GraphPad Software Inc., San Diego, CA, United States) was used to calculate IC50 and plot the plasma concentration-time curves and inhibition plots (type of inhibition, time- and concentration-dependence).

cyp2b1 = target: T2, cyp2b1 (Rattus norvegicus, UniProt P00176); assay: Cocktail method IC50 in rat liver microsomes, bupropion probe; format: in vitro ADME; parameters: from tissue; host or cells: rat liver microsomes, prepared in-house
T2 sequence (P00176 1-491): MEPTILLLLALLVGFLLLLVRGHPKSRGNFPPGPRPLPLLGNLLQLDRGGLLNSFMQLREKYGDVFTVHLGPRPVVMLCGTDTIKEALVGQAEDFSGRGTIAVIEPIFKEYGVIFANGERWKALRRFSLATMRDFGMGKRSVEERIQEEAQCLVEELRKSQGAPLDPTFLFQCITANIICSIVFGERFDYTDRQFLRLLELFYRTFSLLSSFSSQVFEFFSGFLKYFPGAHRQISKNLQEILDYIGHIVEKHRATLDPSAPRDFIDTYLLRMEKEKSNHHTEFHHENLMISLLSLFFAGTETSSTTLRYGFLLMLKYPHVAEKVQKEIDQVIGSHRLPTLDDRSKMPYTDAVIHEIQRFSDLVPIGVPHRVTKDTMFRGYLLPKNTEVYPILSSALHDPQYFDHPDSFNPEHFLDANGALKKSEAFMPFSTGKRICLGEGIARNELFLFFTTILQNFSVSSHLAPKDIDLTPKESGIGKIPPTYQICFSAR
Experimental: as §1

cyp2c11 = target: T3, cyp2c11 (Rattus norvegicus, UniProt P08683); assay: Mechanism of inhibition (Lineweaver-Burk plots), tolbutamide in RLMs; format: in vitro ADME; parameters: from tissue; host or cells: rat liver microsomes, prepared in-house
T3 sequence (P08683 1-500): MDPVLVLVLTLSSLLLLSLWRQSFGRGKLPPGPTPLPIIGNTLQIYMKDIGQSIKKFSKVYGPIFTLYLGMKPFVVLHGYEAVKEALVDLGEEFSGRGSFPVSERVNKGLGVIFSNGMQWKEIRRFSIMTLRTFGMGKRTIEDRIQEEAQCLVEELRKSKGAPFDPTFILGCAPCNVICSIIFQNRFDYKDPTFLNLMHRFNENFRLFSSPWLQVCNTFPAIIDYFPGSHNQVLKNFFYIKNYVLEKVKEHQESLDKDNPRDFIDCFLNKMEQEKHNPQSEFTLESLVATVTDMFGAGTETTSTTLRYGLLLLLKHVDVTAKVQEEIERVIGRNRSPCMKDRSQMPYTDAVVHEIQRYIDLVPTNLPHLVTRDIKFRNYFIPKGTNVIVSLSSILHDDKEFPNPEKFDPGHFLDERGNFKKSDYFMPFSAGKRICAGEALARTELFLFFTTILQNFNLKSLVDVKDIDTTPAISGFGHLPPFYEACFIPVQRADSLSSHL
Experimental: To elucidate the mechanism of inhibition of cyp2b1 and 2c11 by poziotinib, we examined the interaction of different concentrations of poziotinib with bupropion and tolbutamide, respectively. Poziotinib was preincubated with 1 mg/ml of RLMs and probe substrate in a 37°C shaking water bath for 5 min, following which NADPH was added and incubated for 30 min. The concentrations of poziotinib were 0, 2, 4, 8 and 16 μM for 2b1, 0, 5, 10 20 and 40 μM for 2c11. The concentrations of bupropion were 5, 10, 20, and 40 μM, and the concentrations of tolbutamide were 25, 50, 100, and 200 μM. Poziotinib was incubated with different concentrations of the probe substrates in triplicate. The reactions were carried out, stopped, and processed as described in 2.3. Lineweaver-Burk plots were graphed.

SMILES: C=CC(=O)N1CCC(Oc2cc3c(Nc4ccc(Cl)c(Cl)c4F)ncnc3cc2OC)CC1 [Poziotinib]
- inhibitory effect on cyp1a2 (in words) (cyp1a2): did not show any obvious inhibitory effect
- IC50 (cyp1a2; 40 μM phenacetin, cocktail, 30 min): 128 µM
- inhibitory effect on cyp1a2 (in words) (cyp1a2; listed as poziotinib): not obvious
- effect on cyp3a1/2 activity in rats (cyp3a1/2): no significant inhibitory effect
- IC50 (cyp2b1; 20 μM bupropion, cocktail, 30 min, read-out: IC50): 8.79 µM
- IC50 (cyp2b1; classes after Jin et al., 2015, read-out: inhibition class by IC50, CYP2B1): 1 to 10 µM
- type of inhibition of cyp2c11 (cyp2c11; Lineweaver-Burk plots): competitive
- Ki (cyp2c11; rat liver microsomes, tolbutamide 25-200 μM, poziotinib 0-40 μM, secondary plot): 17.7 µM
